Test results: patent US5043166A, “Liposome/anthraquinone drug composition and method” (priority 1989, dated 1991)
Like-named read-outs stand apart in the source and are kept apart here.

What was measured:
[1] = fluorescence of DXR-Fe(III) complex with SUVs (drug modification); type: physicochemical; settings: in presence of SUVs with saturated and/or unsaturated phospholipids
Description: The studies examined the binding of DXR to ferric iron, both in the presence and absence of small unilamellar vesicles (SUVs) formed from the saturated phospholipid dimyristylphosphatidylcholine (DMPC).
One measure of this modification is a change in the 590/560 nm ratio of the fluorescence spectra, which would result from modification of the antracene ring.

[2] = blood biochemistry after repeated administration; type: in vivo, mice; settings: mouse, in vivo, iv, female, read-out: % Surviving (Table IX)
Description: (§1) Sabra mice were divided into groups of 15 mice. Three different doses of either F-DXR or L-DXR were tested: 5, 7.5, and 10 mg/kg body weight. Each dose level was tested on 15 male and 15 female mice. Treatment was administered as a bolus injection through the tail vein on days 0, 14, 28, 42, 56, 70, 84, and 98 of the experiment. The pulsed injection scheme was used for the purpose of achieving high cumulative doses, prolonging the period of exposure of the animals to the drug, and mimicking the way DXR is usually administered in clinical practice. In view of the toxicity observed after single injection (Example XI), DXR was administered at a maximum 10 mg/kg dosage so that the occurrence of acute toxicity would be reduced or nil. In order to avoid the overlapping myelosuppression of successive treatment, 14 days were allowed between successive injections, based on previous observations that full regeneration of the activity of myeloid centers in the spleen after treatment with 10 mg/kg of DXR occurred between 7-12 days after drug administration.
(§2) During the course of the experiment, mice were inspected daily and survival curves were recorded. Whenever possible, dead mice were autopsied and a limited sample of organs sent for histopathological examination. Blood counts and body weights were checked weekly. The blood counts were done in a Coulter analyzer with a 20 μl sample obtained from the retro-orbital blood sinuses. One-third of the mice of each group were sacrificed on day 42, after 3 injections. A second third was sacrificed on day 84, after 6 injections. The remaining mice were sacrificed on day 180, 82 days after the 8the and last injection. Before sacrifice, the mice were bled under light ether anesthesia to obtain serum for the biochemical tests. The animals were then dissected and the removed organs, after weighing, were fixed in Bouin's solution and processed for light microscopy examination with hematoxylin-eosin-phosphomolybdic acid: light green stain.
d) Effects on Blood Biochemistry Values. Blood levels of glucose, cholesterol, triglycerides, urea, uric acid, creatine, and total protein were measured at 42, 84, and 180 day time points. Blood enzyme levels of alkaline phosphatase, aspartate aminotransferase, and alanine aminotransferase were also assayed at these time points.
The most important differences in blood chemistry between F-DXR and L-DXR administration occurred in blood glucose, cholesterol, and triglyceride levels. These differences are seen in Table III below, which gives data on female mice receiving 10 mg/kg of either F-DXR or L-DXR. Glucose, cholesterol, and triglyceride levels are expressed as percent control (untreated) animals, and "nm" means "not measured".

[3] = system: myeloid centers in the spleen; settings: 10 mg/kg of DXR; cited from earlier work
[4] = single injection survival with graded doses of F-DXR and L-DXR; parameters: species or system mice; settings: mouse, in vivo, iv, 90 days
Description: L-DXR was prepared as in Example I, to final DXR concentrations of 1, 1.5, 2, and 2.5 mg/ml, with corresponding phospholipid concentrations of 16, 24, 32, and 40 μmole/ml, respectively, and cholesterol concentrations of 6.4, 9.6, 12.8, and 16 μmole/ml, respectively. Free DXR (F-DXR) was prepared in sterile, pyrogen-free physiologic saline solution to final concentrations of 1, 1.5, 2, and 2.5 mg/ml.
BALB/c male mice were treated intravenously with 4 different doses of F-DXR and L-DXR: 10, 15, 20, and 25 mg/kg, by administering about 1% total animal weight of the corresponding F-DXR or L-DXR formulation. […] No mortality was registered among animals treated with 15 and 10 mg/kg of L-DXR and 60% of the mice injected with 20 mg/kg survived throughout 90 days. F-DXR caused 100% of mortality in the groups injected with 25, 20, and 15 mg/kg and 20% mortality in the group receiving 10 mg/kg.

human cancer patients [5] = settings: cited from earlier work
human cancer patients [6] = experiment: clinical trials with L-DXR in cancer patients; settings: in vivo
Description: Eight cancer patients have been treated with the L-DXR composition of Example III. The administration of the drug was done using a 120 ml "Voluset" at a concentration of approximately 0.5 mg/ml in isotonic saline and at a rate of 2-3 ml per min. For intraarterial injections, peristaltic pumps were used, with the rate of infusion being ~1.5 ml/min. […] This was done taking advantage of previously implanted pumps. In both patients, the perfusion of the liver with the pump was previously examined with a Tc-99 labeled macroaggregated albumin scan.

Sabra mice = experiment: repeated administration of graded doses of F-DXR and L-DXR; type: in vivo
Description: (§3) L-DXR was prepared as in Example I, to final DXR concentrations of 0.5, 0.75, and 1.0 mg/ml, corresponding to phospholipid concentrations of 8, 12, and 16 μmole/ml, respectively, and cholesterol concentrations of 3.2, 4.8, and 6.4 μmole/ml, respectively. Free DXR (F-DXR) was prepared in sterile, pyrogen-free physiologic saline solution to final concentrations of 0.5, 0.75, and 1 mg/ml.
as §1, §2
(§4) (c) Effects on Body and Organ Weights. […] The weight measurements were made 42, 84, and 180 days after initial drug injection. The body and organ weights are expressed in percent relative to untreated mice. The percent survivors at each of the three time points is indicated at the top in the table; the dashes (-) indicate no survivors.

[7] = as above; type: in vivo, mice; settings: mouse, in vivo, iv, 10 mg/kg, read-out: % Surviving; for survival at 1008 h: day 42, 10 mg/kg
Description: as §3, §1, §2, §4

[8] = liposome form, animals; cited from earlier work

Compound: COc1cccc2c1C(=O)c1c(O)c3c(c(O)c1C2=O)C[C@@](O)(C(=O)CO)C[C@@H]3O[C@H]1C[C@H](N)[C@H](O)[C@H](C)O1 [DXR, doxorubicin]
- chemical modification with ferric iron [1]: relatively rapid and irreversible chemical modification
- survival at 1008 h ([2]; day 42, 10 mg/kg): 93%
- survival at 2016 h ([2]; day 84, 10 mg/kg): 27%
- full regeneration of myeloid centers in the spleen [3]: 7 to 12 days
- mortality at 2160 h ([4]; 10 mg/kg i.v.): 20%
- mortality at 2160 h ([4]; 15 mg/kg i.v.): 100%
- mortality at 2160 h ([4]; 20 mg/kg i.v.): 100%
- mortality at 2160 h ([4]; 25 mg/kg i.v.): 100%
- previous treatment outcome (human cancer patients [5]; patient 5, hepatoma): Previous failure
- previous treatment outcome (human cancer patients [5]; patient 8, hepatoma): failure
- fever (human cancer patients [6]): fever was a constant feature
- lower limb weakness (Sabra mice; 10 mg/kg): marked weakness of the lower limbs
- organ weights (liver, spleen, kidneys, heart) (Sabra mice; 10 mg/kg): substantial weight reduction
- mortality rates, all groups (Sabra mice; 5, 7.5 and 10 mg/kg): Significant mortality rates
- white cell count (Sabra mice; 7 and 14 days after each injection): no significant differences between the F-DXR and the L-DXR treated groups
- findings in animals dying (Sabra mice; 7.5 and 5 mg/kg): pleural and peritoneal effusions, cardiomegaly, and lung congestion
- Body weight, percent relative to untreated mice (Sabra mice; female, day 42, 10 mg/kg): 95%
- Heart weight, percent relative to untreated mice (Sabra mice; female, day 42, 10 mg/kg): 97%
- Kidneys weight, percent relative to untreated mice (Sabra mice; female, day 42, 10 mg/kg): 78%
- Liver weight, percent relative to untreated mice (Sabra mice; female, day 42, 10 mg/kg): 107%
- Spleen weight, percent relative to untreated mice (Sabra mice; female, day 42, 10 mg/kg): 78%
- Body weight, percent relative to untreated mice (Sabra mice; female, day 84, 10 mg/kg): 84%
- Heart weight, percent relative to untreated mice (Sabra mice; female, day 84, 10 mg/kg): 74%
- Kidneys weight, percent relative to untreated mice (Sabra mice; female, day 84, 10 mg/kg): 91%
- Liver weight, percent relative to untreated mice (Sabra mice; female, day 84, 10 mg/kg): 91%
- Spleen weight, percent relative to untreated mice (Sabra mice; female, day 84, 10 mg/kg): 67%
- sex difference in toxicity (Sabra mice; high and intermediate dosages): slight trend towards higher toxicity in male as compared to female mice
- Body weight, percent relative to untreated mice (Sabra mice; male, day 42, 10 mg/kg): 75%
- Heart weight, percent relative to untreated mice (Sabra mice; male, day 42, 10 mg/kg): 82%
- Kidneys weight, percent relative to untreated mice (Sabra mice; male, day 42, 10 mg/kg): 76%
- Liver weight, percent relative to untreated mice (Sabra mice; male, day 42, 10 mg/kg): 75%
- Spleen weight, percent relative to untreated mice (Sabra mice; male, day 42, 10 mg/kg): 71%
- survival at 1008 h ([7]; female): 93%
- survival at 2016 h ([7]; female, day 84, 10 mg/kg): 27%
- survival at 1008 h ([7]; male): 87%
- toxicity as judged by reduced mortality [8]: significantly less toxic, as judged by reduced mortality
